In patent publication US9040565B2, “1H-benzimidazole-5-carboxamides as anti-inflammatory agents” (Orexo AB, priority 2008, dated 2015):

Target: T1, recombinant human mPGES-1 (Homo sapiens, UniProt O14684)
T1 construct: made in house; host or cells: Rosetta E. coli (microsomal/membrane fraction)
T1 sequence (O14684 1-152): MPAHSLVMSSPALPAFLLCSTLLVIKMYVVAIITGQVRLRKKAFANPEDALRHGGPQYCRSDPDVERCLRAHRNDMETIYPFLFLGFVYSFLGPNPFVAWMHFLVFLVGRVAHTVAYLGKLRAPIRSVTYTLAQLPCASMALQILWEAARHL
Assay: mPGES-1 inhibition, HTRF detection of PGE2 (Biological Test)
Type: biochemical
Protocol: Microsomes from Rosetta E. coli bacteria expressing recombinant human mPGES-1 is dissolved in 0.1 M KPi pH 7.4 buffer containing 2.5 mM GSH. 50 μl of the enzyme is subsequently dispensed in a 384-well plate. 0.5 μl of the inhibitor dissolved in DMSO at is thereafter added to each well and incubated for 25 minutes at room temperature.
Subsequently, 2 μl of PGH2 dissolved in an appropriate solvent is added to each well and after one minute the acidified stop solution containing FeCl2 is added. 4 μl of the total volume is transferred to a separate plate and diluted 750-fold in two separate steps before HTRF detection of PGE2.
The HTRf detection is performed by the use of a commercially available kit from CisBio essentially according to the manufacturer's protocol. Briefly, 10 μl of the diluted sample is transferred to a white 384-well plate. 5 μl of d2 and 5 μl Eu3+-Cryptate labeled anti-PGE2 is added to each well containing samples by the use of a Multidrop. The plate is covered with a plastic self-adhesive film, centrifuged at 1200 rpm for 1 minute and subsequently stored at +4° C. over night.
After over night incubation the fluorescence is measured by the use of an appropriate microplate reader. The fluorescence of europium cryptate, and d2 are measured using the following excitation and emission wavelength, europium cryptate: λmax^ex=307 nm, λmax^em=620 nm and d2: λmax^ex=620 nm, λmax^em=665 nm), respectively. The extent of the specific FRET is measured as a ratio of the emission intensity at 665 nm vs. that at 620 nm. A standard curve using synthetic PGE2 is used to quantify the amount of PGE2 in unknown samples.

Structure (SMILES)	inhibition at 10 µM [%]
O=C(NCC(F)(F)C(F)(F)C(F)(F)C(F)(F)F)c1cc2nc(Nc3ncc(Cl)cc3Cl)[nH]c2cc1OC(F)F [Example 700, 2-(3,5-Dichloro-pyridin-2-yl-amino)-N-(2,2,3,3,4,4,5,5,5-nonafluoro-pentyl)-6-(difluoromethoxy)-1H-benzimidazole-5-carboxamide]	98
O=C(N[C@H]1CC[C@H](C(F)(F)F)CC1)c1cc2nc(Nc3c(Cl)cncc3Cl)[nH]c2cc1OC(F)F [Example 701, 2-(3,5-Dichloropyridin-4-ylamino)-N-(trans-4-trifluoromethyl-cyclohex-1-yl)-6-difluoromethoxy-1H-benzimidazole-5-carboxamide]	100
CCOc1cc2c(cc1C(=O)Nc1ccc(Br)cc1)nc(Nc1c(Cl)cncc1Cl)n2CC(F)(F)F [Example 704]	100
CCOc1cc2c(cc1C(=O)Nc1cc(C(F)(F)F)ccn1)nc(Nc1c(Cl)cncc1Cl)n2CC(F)(F)F [Example 705]	94
O=C(NCc1ncccc1C(F)F)c1cc2nc(Nc3c(Cl)cncc3Cl)[nH]c2cc1OCC(F)(F)F [Example 711, 2-(3,5-Dichloropyridin-4-ylamino)-N-((3-difluoromethyl-pyridin-2-yl)-methyl)-6-(2,2,2-trifluoro-ethoxy)-1H-benzimidazole-5-carboxamide]	98

Continued, values first:

inhibition at 10 µM [%]	Structure (SMILES)
95	O=C(Nc1cc(C(F)(F)F)ccn1)c1cc2nc(Nc3c(Cl)cncc3Cl)[nH]c2cc1OC(F)F [Example 702]
98	O=C(Nc1ccc(Br)cc1)c1cc2nc(Nc3c(Cl)cncc3Cl)[nH]c2cc1OC(F)F [Example 703, 2-(3,5-Dichloropyridin-4-ylamino)-N-(4-bromo-phenyl)-6-difluoromethoxy-1H-benzimidazole-5-carboxamide]
100	CC(F)(F)c1cccc(NC(=O)c2cc3nc(Nc4c(Cl)cncc4Cl)[nH]c3cc2OCC(F)(F)F)n1 [Example 706]
100	O=C(Nc1ccc(F)c(C(F)F)n1)c1cc2nc(Nc3c(Cl)cncc3Cl)[nH]c2cc1OCC(F)(F)F [Example 707, 2-(3,5-Dichloropyridin-4-ylamino)-N-(6-difluoromethyl-5-fluoro-pyridin-2-yl)-6-(2,2,2-trifluoroethoxy)-1H-benzimidazole-6-carboxamide]
100	O=C(Nc1cccc(C(F)F)n1)c1cc2nc(Nc3c(Cl)cncc3Cl)[nH]c2cc1OCC(F)(F)F [Example 708, 2-(3,5-Dichloropyridin-4-ylamino)-N-(6-difluoromethyl-pyridin-2-yl)-6-(2,2,2-trifluoroethoxy)-1H-benzimidazole-6-carboxamide]
100	CCOc1cc2[nH]c(Nc3c(Cl)cncc3Cl)nc2cc1C(=O)Nc1cc(C)cc(C(F)(F)F)n1 [Example 709]
98	CCOc1cc2[nH]c(Nc3c(Cl)cncc3Cl)nc2cc1C(=O)Nc1ccc(F)c(C(F)F)n1 [Example 710, 2-(3,5-Dichloropyridin-4-ylamino)-N-(5-fluoro-6-difluoromethyl-pyridin-2-yl)-6-ethoxy-1H-benzimidazole-6-carboxamide]
